In patent US20230002374A1, “GPR52 MODULATOR COMPOUNDS” (Heptares Therapeutics Limited, priority 2019, published 2023):
Where two headings read alike, the source gives them in different places.

Biological target: human GPR52 (Homo sapiens, UniProt Q9Y2T5)
Assay: GPR52 Agonist Functional cAMP Assay;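 note: HEKf cells transduced with GPR52 BacMam for 24 h, 2000 per well, exposed to compounds 30 min at 37° C with 0.5 mM IBMX, cAMP read by HTRF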
Conditions: for EC50: pEC50 average, HEKf cells infected with human GPR52 BacMam virus, cAMP HTRF, 30 min at 37° C.
[1] = maximal response normalised to DMSO (0%) and maximal compound 7m (J. Med. Chem., 2014, 57, 5226) response (100%)

human GPR52, sequence (Q9Y2T5 whole entry): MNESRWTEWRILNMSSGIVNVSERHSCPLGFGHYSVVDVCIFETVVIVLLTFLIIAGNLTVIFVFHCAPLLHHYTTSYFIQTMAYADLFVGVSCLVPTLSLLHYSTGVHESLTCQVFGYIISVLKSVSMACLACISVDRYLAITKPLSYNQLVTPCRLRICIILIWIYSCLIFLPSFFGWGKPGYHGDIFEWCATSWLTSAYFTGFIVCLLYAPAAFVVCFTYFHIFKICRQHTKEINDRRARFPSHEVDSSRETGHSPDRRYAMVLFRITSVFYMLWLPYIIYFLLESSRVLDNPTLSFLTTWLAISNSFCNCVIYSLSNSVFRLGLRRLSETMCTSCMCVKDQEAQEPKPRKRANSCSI
Description: Following BacMam infection, cells were pelleted by centrifugation (335 g, 5 min), resuspended in cell freezing medium (Sigma) and frozen at −150° C. until required. On experiment day, 25 nL GPR52 compound dilutions, prepared in DMSO, were stamped onto proxiplates (PerkinElmer) by a LabCyte ECHO acoustic dispenser. Frozen cells were thawed and resuspended in assay stimulation buffer (Cisbio) containing 0.5 mM 3-iso-butyl-1-methylxanthine (IBMX, Sigma) to achieve a density of 2000 cells per well. 10 μl cells were added to assay plates using a Multidrop Combi Reagent Dispenser (ThermoFisher) before centrifugation (335 g, 1 min). Cells were incubated with compounds at 37° C. for 30 min prior to addition of cAMP detection reagents (HiRange cAMP kit, Cisbio) which were prepared according to the manufacturer's instructions. Plates were shaken for 1 h at room temperature before reading on a PHERAstar FS plate reader (BMG Labtech) using standard HTRF settings.

SMILES | Emax [1] [%] | EC50 [nM] | Emax [%]
Cc1nn(-c2ccnc(C(O)c3cc(F)cc(C(F)(F)F)c3)c2)c2c1C(=O)NCC2 (single isomer, unassigned) [117 Isomer 1, 1-(2-((3-fluoro-5-(trifluoromethyl)phenyl)(hydroxy)methyl)pyridin-4-yl)-3-methyl-1,5,6,7-tetrahydro-4H-pyrazolo[4,3-c]pyridin-4-one] | 83 | 251 | –
Cc1cc(Cc2ccnc(-n3ncc4c3CCNC4=O)c2)cnc1F [Example 6, 1-(4-((6-fluoro-5-methylpyridin-3-yl)methyl)pyridin-2-yl)-1,5,6,7-tetrahydro-4H-pyrazolo[4,3-c]pyridin-4-one] | 82 | 501 | –
Cc1cc(Cc2ccnc(-n3ncc4c3CCN(C)C4=O)c2)cnc1F [Example 7, 1-(4-((6-fluoro-5-methylpyridin-3-yl)methyl)pyridin-2-yl)-5-methyl-1,5,6,7-tetrahydro-4H-pyrazolo[4,3-c]pyridin-4-one] | 83 | 200 | –
O=C1NCCc2nn(-c3cc(Cc4cccc(C(F)(F)F)c4)ccn3)cc21 [Example 8, 2-(4-(3-(trifluoromethyl)benzyl)pyridin-2-yl)-2,5,6,7-tetrahydro-4H-pyrazolo[4,3-c]pyridin-4-one] | 75 | 316 | –
O=C1NCCc2c1cnn2-c1cnnc(Cc2cc(F)cc(C(F)(F)F)c2)c1 [Example 17, 1-(6-(3-fluoro-5-(trifluoromethyl)benzyl)pyridazin-4-yl)-1,5,6,7-tetrahydro-4H-pyrazolo[4,3-c]pyridin-4-one] | 96 | 1260 | –
O=C1NCCc2c1cnn2-c1ccnc(Cc2ccc(Cl)cc2)c1 [Example 19, 1-(2-(4-chlorobenzyl)pyridin-4-yl)-1,5,6,7-tetrahydro-4H-pyrazolo[4,3-c]pyridin-4-one] | – | 631 | 73
O=C1NCCc2c1cnn2-c1ccnc(Cc2cc(F)cc(F)c2)c1 [Example 21, 1-(2-(3,5-difluorobenzyl)pyridin-4-yl)-1,5,6,7-tetrahydro-4H-pyrazolo[4,3-c]pyridin-4-one] | 100 | 1260 | –
O=C1NCCc2c1cnn2-c1ccnc(Cc2cccc(C(F)(F)F)c2)c1 [Example 22, 1-(2-(3-(trifluoromethyl)benzyl)pyridin-4-yl)-1,5,6,7-tetrahydro-4H-pyrazolo[4,3-c]pyridin-4-one] | 91 | 200 | –
O=C1NCCc2c1cnn2-c1ccnc(Cc2ccc(F)c(C(F)(F)F)c2)c1 [Example 23, 1-(2-(4-fluoro-3-(trifluoromethyl)benzyl)pyridin-4-yl)-1,5,6,7-tetrahydro-4H-pyrazolo[4,3-c]pyridin-4-one] | 90 | 158 | –
O=C1NCCc2c1cnn2-c1ccnc(Cc2cc(F)c(F)c(F)c2)c1 [Example 24, 1-(2-(3,4,5-trifluorobenzyl)pyridin-4-yl)-1,5,6,7-tetrahydro-4H-pyrazolo[4,3-c]pyridin-4-one] | 95 | 316 | –
O=C1NCCc2c1cnn2-c1ccnc(Cc2ccc(F)c(Cl)c2)c1 [Example 25, 1-(2-(3-chloro-4-fluorobenzyl)pyridin-4-yl)-1,5,6,7-tetrahydro-4H-pyrazolo[4,3-c]pyridin-4-one] | 89 | 158 | –
O=C1NCCc2c1cnn2-c1ccnc(Cc2cccc(C(F)(F)F)c2F)c1 [Example 29, 1-(2-(2-fluoro-3-(trifluoromethyl)benzyl)pyridin-4-yl)-1,5,6,7-tetrahydro-4H-pyrazolo[4,3-c]pyridin-4-one] | 57 | 2510 | –
O=C1NCCc2c1cnn2-c1ccnc(Cc2cc(C(F)(F)F)ccc2F)c1 [Example 30, 1-(2-(2-fluoro-5-(trifluoromethyl)benzyl)pyridin-4-yl)-1,5,6,7-tetrahydro-4H-pyrazolo[4,3-c]pyridin-4-one] | 77 | 794 | –
O=C1NCCc2c1cnn2-c1ccnc(Cc2ccc(C(F)(F)F)cc2)c1 [Example 32, 1-(2-(4-(trifluoromethyl)benzyl)pyridin-4-yl)-1,5,6,7-tetrahydro-4H-pyrazolo[4,3-c]pyridin-4-one] | 61 | 398 | –
N#Cc1cc(Cc2cc(-n3ncc4c3CCNC4=O)ccn2)cc(C(F)(F)F)c1 [Example 33, 3-((4-(4-oxo-4,5,6,7-tetrahydro-1H-pyrazolo[4,3-c]pyridin-1-yl)pyridin-2-yl)methyl)-5-(trifluoromethyl)benzonitrile] | 58 | 3160 | –
O=C1NCCc2c1cnn2-c1ccnc(Cc2cc(C(F)(F)F)cc(C(F)(F)F)c2)c1 [Example 34, 1-(2-(3,5-bis(trifluoromethyl)benzyl)pyridin-4-yl)-1,5,6,7-tetrahydro-4H-pyrazolo[4,3-c]pyridin-4-one] | 54 | 1000 | –
O=C(c1cc(F)cc(C(F)(F)F)c1)c1cc(-n2ncc3c2CCNC3=O)ccn1 [Example 35, 1-(2-(3-fluoro-5-(trifluoromethyl)benzoyl)pyridin-4-yl)-1,5,6,7-tetrahydro-4H-pyrazolo[4,3-c]pyridin-4-one] | 40 | 3160 | –
O=C1NCCc2c1cnn2-c1ccnc(C(O)c2cc(F)cc(C(F)(F)F)c2)c1 (stereo not drawn) [Example 36, 1-(2-((3-fluoro-5-(trifluoromethyl)phenyl)(hydroxy)methyl)pyridin-4-yl)-1,5,6,7-tetrahydro-4H-pyrazolo[4,3-c]pyridin-4-one] | 92 | 501 | –
O=C1NCCc2c1cnn2-c1ccnc(C(F)(F)c2cc(F)cc(C(F)(F)F)c2)c1 [Example 38, 1-(2-(difluoro(3-fluoro-5-(trifluoromethyl)phenyl)methyl)pyridin-4-yl)-1,5,6,7-tetrahydro-4H-pyrazolo[4,3-c]pyridin-4-one] | 55 | 631 | –

Further lines, with some results ahead:

Emax [1] [%] | EC50 [nM] | SMILES | Emax [%]
94 | 126 | Cc1nn(-c2cc(C(O)c3cc(F)cc(C(F)(F)F)c3)ccn2)c2c1C(=O)NCC2 (single isomer, unassigned) [118 Isomer 1, 1-(4-((3-fluoro-5-(trifluoromethyl)phenyl)(hydroxy)methyl)pyridin-2-yl)-3-methyl-1,5,6,7-tetrahydro-4H-pyrazolo[4,3-c]pyridin-4-one] | –
95 | 31.6 | CC1Cc2c(cnn2-c2ccnc(Cc3cc(F)cc(C(F)(F)F)c3)c2)C(=O)N1 (single isomer, unassigned) [Example 40 Isomer 1, 1-(2-(3-fluoro-5-(trifluoromethyl)benzyl)pyridin-4-yl)-6-methyl-1,5,6,7-tetrahydro-4H-pyrazolo[4,3-c]pyridin-4-one] | –
90 | 7.94 | O=C1NCCCc2c1cnn2-c1cc(Cc2cc(F)cc(C(F)(F)F)c2)ccn1 [Example 10, 1-(4-(3-fluoro-5-(trifluoromethyl)benzyl)pyridin-2-yl)-5,6,7,8-tetrahydropyrazolo[4,3-c]azepin-4(1H)-one] | –
86 | 63.1 | O=C1NCCCc2c1cnn2-c1cc(Cc2cccc(C(F)(F)F)c2)ccn1 [Example 11, 1-(4-(3-(trifluoromethyl)benzyl)pyridin-2-yl)-5,6,7,8-tetrahydropyrazolo[4,3-c]azepin-4(1H)-one] | –
89 | 25.1 | O=C1NCCOc2c1cnn2-c1cc(Cc2cccc(C(F)(F)F)c2)ccn1 [Example 13, 1-(4-(3-(trifluoromethyl)benzyl)pyridin-2-yl)-6,7-dihydro-1H-pyrazolo[4,3-f][1,4]oxazepin-4(5H)-one] | –
103 | 10 | O=C1NCCOc2c1cnn2-c1cc(Cc2cc(F)cc(C(F)(F)F)c2)ccn1 [Example 14, 1-(4-(3-fluoro-5-(trifluoromethyl)benzyl)pyridin-2-yl)-6,7-dihydro-1H-pyrazolo[4,3-f][1,4]oxazepin-4(5H)-one] | –
95 | 126 | O=C1NCCc2c1cnn2-c1cc(Cc2cc(F)cc(C(F)(F)F)c2)cnn1 [Example 15, 1-(5-(3-fluoro-5-(trifluoromethyl)benzyl)pyridazin-3-yl)-1,5,6,7-tetrahydro-4H-pyrazolo[4,3-c]pyridin-4-one] | –
82 | 79.4 | O=C1NCCc2c1cnn2-c1cc(Oc2cc(F)cc(C(F)(F)F)c2)ccn1 [Example 18, 1-(4-(3-fluoro-5-(trifluoromethyl)phenoxy)pyridin-2-yl)-1,5,6,7-tetrahydro-4H-pyrazolo[4,3-c]pyridin-4-one] | –
101 | 158 | O=C1NCCc2c1cnn2-c1ccnc(Cc2cc(F)cc(Cl)c2)c1 [Example 20, 1-(2-(3-chloro-5-fluorobenzyl)pyridin-4-yl)-1,5,6,7-tetrahydro-4H-pyrazolo[4,3-c]pyridin-4-one] | –
95 | 79.4 | Cc1cc(F)cc(Cc2cc(-n3ncc4c3CCNC4=O)ccn2)c1 [Example 26, 1-(2-(3-fluoro-5-methylbenzyl)pyridin-4-yl)-1,5,6,7-tetrahydro-4H-pyrazolo[4,3-c]pyridin-4-one] | –
90 | 79.4 | O=C1NCCc2c1cnn2-c1ccnc(Cc2cc(Cl)cc(C(F)(F)F)c2)c1 [Example 27, 1-(2-(3-chloro-5-(trifluoromethyl)benzyl)pyridin-4-yl)-1,5,6,7-tetrahydro-4H-pyrazolo[4,3-c]pyridin-4-one] | –
88 | 100 | Cc1cc(Cc2cc(-n3ncc4c3CCNC4=O)ccn2)cc(C(F)(F)F)c1 [Example 28, 1-(2-(3-methyl-5-(trifluoromethyl)benzyl)pyridin-4-yl)-1,5,6,7-tetrahydro-4H-pyrazolo[4,3-c]pyridin-4-one] | –
95 | 126 | O=C1NCCc2c1cnn2-c1ccnc(Cc2cc(Cl)cc(Cl)c2)c1 [Example 31, 1-(2-(3,5-dichlorobenzyl)pyridin-4-yl)-1,5,6,7-tetrahydro-4H-pyrazolo[4,3-c]pyridin-4-one] | –
93 | 126 | O=C1NCCc2c1cnn2-c1ccnc(C(F)c2cc(F)cc(C(F)(F)F)c2)c1 (stereo not drawn) [Example 37, 1-(2-(fluoro(3-fluoro-5-(trifluoromethyl)phenyl)methyl)pyridin-4-yl)-1,5,6,7-tetrahydro-4H-pyrazolo[4,3-c]pyridin-4-one] | –
